Experimental data: patent US20180333401A1, “METHODS OF TREATING LIVER DISEASE” (Gilead Sciences, Inc., priority 2017, published 2018)
Marks after values point to notes of the source that are not given here.

Columns and labels:
Type in all cases: in vivo, human
[1] = system: hepatic proton density fat fraction (PDFF); test: Hepatic fat by MRI-PDFF, proof of concept study in subjects with NASH; settings: for MRI-PDFF, median relative (%) change from BL / ≥30% reduction in MRI-PDFF, % of subjects: W12, orally QD for 12 weeks; for PDFF compared with BL (in words): 12 weeks
Procedure: (§1) 70 subjects with NASH diagnosed by a hepatic proton density fat fraction (PDFF) ≥10% and liver stiffness ≥2.88 kPa by MRE, or liver biopsy consistent with NASH and stage 2-3 fibrosis were enrolled. Successive cohorts received monotherapy with Formula (II) 18 mg, Formula (VII) 20 mg, or Formula (V) 30 mg (n=10/cohort), or combination therapy with Formula (II)+Formula (VII) (18/20 mg) or Formula (II)+Formula (V) (18/30 mg) (n=20/cohort) orally QD for 12 weeks. Centrally-read PDFF and MRE, and serum fibrosis markers were measured at baseline (BL), W4 and W12. Deuterated water was administered to measure fractional synthesis of lipids (de novo lipogenesis [DNL]) and fibrosis-related markers (data are pending).

TIMP-1, PIII-NP = test: Serum fibrosis markers (TIMP-1, PIII-NP), proof of concept study in subjects with NASH; settings: for PIII-NP, median relative (%) change from BL / TIMP-1, median relative (%) change from BL: serum, W12, orally QD for 12 weeks
Procedure: as §1

ALT, GGT = test: Liver biochemistry (ALT, GGT), proof of concept study in subjects with NASH; settings: for ALT, median relative (%) change from BL / GGT, median relative (%) change from BL: W12, orally QD for 12 weeks
Procedure: as §1

[2] = Safety (AEs), proof of concept study in subjects with NASH; settings: over 12 weeks, orally QD
Procedure: as §1

liver stiffness = test: Liver stiffness by MRE, proof of concept study in subjects with NASH; settings: W12, orally QD for 12 weeks
Procedure: as §1

Row | Structure (SMILES) | MRI-PDFF, median relative (%) change from BL [1] | ≥30% reduction in MRI-PDFF, % of subjects [1] | PIII-NP, median relative (%) change from BL (TIMP-1, PIII-NP) | TIMP-1, median relative (%) change from BL (TIMP-1, PIII-NP) | ALT, median relative (%) change from BL (ALT, GGT) | GGT, median relative (%) change from BL (ALT, GGT) | Grade 2 or higher AE, % of subjects [2] | MRE, median relative (%) change from BL (liver stiffness) | PDFF compared with BL (in words) [1] | ALT compared with BL (in words) (ALT, GGT; 12 weeks) | GGT compared with BL (in words) (ALT, GGT; 12 weeks) | PIII-NP compared with BL (in words) (TIMP-1, PIII-NP; 12 weeks) | TIMP-1 compared with BL (in words) (TIMP-1, PIII-NP; 12 weeks)
1 | Cc1cc(F)c(C(=O)Nc2cccc(-c3nncn3C(C)C)n2)cc1-n1cnc(C2CC2)c1 [Formula (II)] | 7.1% | 10% | −8.7% | 2.6% | −1.2% | −4.4% | 40% | −8.6% |  |  |  |  | 
2 | O=C(O)c1ccnc(N2CC(O)(c3ccc(OCc4c(-c5c(Cl)cccc5Cl)noc4C4CC4)cc3Cl)C2)c1 [Formula (V)] | −15.6* % | 0% | 8.8% | 6.6* % | −29.7% | −19.3* % | 40% | −8.3% | reduced | reduced | reduced |  | 
3 | Cc1cc(F)c(C(=O)Nc2cccc(-c3nncn3[C@@H](C)CF)n2)cc1-n1cnc(C2CC2)c1 [Formula (VII)] | −42.7* % | 70% | −11.9% | −11.6* % | −33.5% | −1.6% | 40% | −8.9% | significant improvements | non-significant reductions |  | non-significant reductions | significant improvements
